According to patent US20250034216A1, “STEREOSELECTIVE COVALENT LIGANDS FOR ONCOGENIC AND IMMUNOLOGICAL PROTEINS” (The Scripps Research Institute, priority 2021, published 2025):

Experiments:
EPHX4_C287 = target: T1, EPHX4_C287 (Homo sapiens, UniProt Q8IUS5); assay: IA-DTB cysteine engagement; format: binding; conditions: 22Rv1 cells, 20 μM probe, 1 h, relative to DMSO
T1 construct: endogenous in cells; host or cells: 22Rv1
T1 sequence (Q8IUS5 1-362): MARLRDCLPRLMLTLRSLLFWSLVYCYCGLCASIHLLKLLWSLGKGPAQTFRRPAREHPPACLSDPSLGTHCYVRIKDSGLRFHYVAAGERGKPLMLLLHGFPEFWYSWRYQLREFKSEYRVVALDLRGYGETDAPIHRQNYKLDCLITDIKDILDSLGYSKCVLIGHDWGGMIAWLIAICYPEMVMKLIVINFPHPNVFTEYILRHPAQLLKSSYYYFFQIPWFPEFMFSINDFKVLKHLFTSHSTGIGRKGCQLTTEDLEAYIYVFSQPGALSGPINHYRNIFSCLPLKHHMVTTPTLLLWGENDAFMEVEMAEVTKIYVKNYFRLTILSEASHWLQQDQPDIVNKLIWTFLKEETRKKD
Summary of the method: (§1)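 First, cells are exposed to electrophilic probes in situ. Next, lysates are labeled with IA-DTB (1 h, ambient temperature), reduced, alkylated and trypsin-digested. Then, IA-DTB peptides are enriched on streptavidin, TMT-labeled and analyzed, with ratios taken against DMSO channels.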

GPAT4_C325 = target: T2, GPAT4_C325 (Homo sapiens, UniProt Q86UL3); assay: IA-DTB cysteine engagement; format: binding; conditions: 22Rv1 cells, 20 μM probe, 1 h, relative to DMSO
T2 construct: endogenous in cells; host or cells: 22Rv1
T2 sequence (Q86UL3 38-456): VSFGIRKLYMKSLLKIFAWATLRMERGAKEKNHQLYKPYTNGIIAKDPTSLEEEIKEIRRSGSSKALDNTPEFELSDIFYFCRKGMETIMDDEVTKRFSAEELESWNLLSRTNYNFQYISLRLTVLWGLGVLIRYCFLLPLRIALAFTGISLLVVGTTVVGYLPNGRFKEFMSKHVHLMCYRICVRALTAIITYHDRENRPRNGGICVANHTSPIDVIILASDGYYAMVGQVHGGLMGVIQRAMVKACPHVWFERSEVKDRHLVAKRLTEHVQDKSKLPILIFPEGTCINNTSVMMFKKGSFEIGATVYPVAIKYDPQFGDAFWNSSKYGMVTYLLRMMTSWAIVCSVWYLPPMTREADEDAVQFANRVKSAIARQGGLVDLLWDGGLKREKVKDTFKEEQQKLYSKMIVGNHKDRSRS
Summary of the method: as §1

Structure (SMILES)	% engagement EPHX4_C287 (EPHX4_C287) [%]	% engagement GPAT4_C325 (GPAT4_C325) [%]
C=CC(=O)N1C[C@H](c2ccc(Br)cc2)[C@H]1C(=O)Nc1cccc2cccnc12 [MY-3A, (2S,3S)-1-acryloyl-3-(4-bromophenyl)-N-(quinolin-8-yl)azetidine-2-carboxamide]	28	67.25
C=CC(=O)N1C[C@@H](c2ccc(Br)cc2)[C@H]1C(=O)Nc1cccc2cccnc12 [MY-1A, (2S,3R)-1-acryloyl-3-(4-bromophenyl)-N-(quinolin-8-yl)azetidine-2-carboxamide]	23.5	83.25
C=CC(=O)N1C[C@H](c2ccc(Br)cc2)[C@@H]1C(=O)Nc1cccc2cccnc12 [MY-1B, (2R,3S)-1-acryloyl-3-(4-bromophenyl)-N-(quinolin-8-yl)azetidine-2-carboxamide]	44.5	80
C=CC(=O)N1C[C@H](c2ccc(Br)cc2)[C@H]1C(=O)Nc1cccc2cccnc12 [MY-3B, (2S,3S)-1-acryloyl-3-(4-bromophenyl)-N-(quinolin-8-yl)azetidine-2-carboxamide]	86.5	93.75
